According to patent US9839594B2, “Skin-moisturising or wrinkle-improving external composition and cosmetic composition” (KOREA INSTITUTE OF ORIENTAL MEDICINE, priority 2012, dated 2017):

How the values were obtained:
Type in all cases: in vivo, hairless mice (male HR-1)
skins of hairless mice = test: Skin wrinkle measurement with silicone skin replica of back skin of UV-irradiated hairless mice; settings: 12 weeks
Protocol: (§1) 7-week old male hairless mice (male HR-1, hairless mice, Japan SLC, Inc.), the experimental animals, were purchased from Central Lab. Animal Inc (Seoul, Korea). and used after an adaption period of a week. Only healthy animals were used in the experiments by observing general conditions during the adaption period. The breeding environment was maintained at 23±3° C. with 50±5% humidity with a light-dark cycle of 12 hours (7:00-19:00/lighting time). During the experiments, seven experimental animals per each experimental group were raised in a polycarbonate cage (200×320×145 mm, Three-shine Co., Daejeon, Korea), and the animals were given both mouse feed 5L79 (Charles river, USA) and tap water for drinking sterilized with UV rays to be consumed freely.
The experiments were carried out on the following groups: a control group (Con), a UV-treated group (UV), an excipient-treated group (Vehicle), and a group treated by the compound represented by Formula 1 (TM), and the samples were administered thereto. The sample administration was performed for 12 weeks in total by spreading the samples onto skins. […]
(§2) Ultraviolet irradiation was performed on the experimental groups except for the control group using a UVB lamp (Mineralight UV Display lamp, UVP, USA) three times a week for 8 weeks. […] The UV irradiance was measured by a radiometry instrument (Delta OHM, Italy), and then, was adjusted according to irradiation time.
The degree of wrinkle formation was measured with a silicone skin replica of the back skins of the hairless mice of each experimental group. […] A shadow image, generated according to the thickness of the skin replica, was filed using a CCD camera, and the depth and length of wrinkles were measured using the Skin Visiometer VL 650 software, which is a computer image analysis system. […]

[1] = tested on: back skin tissues of hairless mice; test: Histological observation of skin (H&E and Masson's trichome staining); settings: 0.25% (w/v) topical, 12 weeks, UVB irradiation
Protocol: as §1
The experiments were carried out on the following groups: a control group (Con), a UV-treated group (UV), an excipient-treated group (Vehicle), and a group treated by the compound represented by Formula 1 (TM), and the samples were administered thereto. The sample administration was performed for 12 weeks in total by spreading the samples onto skins. For the compound treated group (TM), the compound was dissolved in dimethyl sulfoxide (DMSO), and subsequently in a mixed solution containing propylene glycol, ethanol, and poly ethylene glycol with a 1:1:1 ratio, and the dissolved formulation (the final concentration of the compound was 0.25% (w/v)) was applied to skins with the amount of 40 uL per 6 cm^2 once a day for 5 days a week. The excipient-treated group (Vehicle) were treated in the same manner as the compound treated group (TM), except the compound omitted.
as §2, with “time. […]” for “time.”

[2] = tested on: back skin tissues of hairless mice; test: Epidermis thickness measured in H&E-stained tissues; settings: 0.25% (w/v) topical, 12 weeks; UVB irradiation; p<0.05
Protocol: as §1, with “freely. […]” for “freely.”
as §2, with “time. […]” for “time.”
The epidermis thickness was measured from the keratin layer to the epidermal basement membrane of tissues, which were stained with H&E in Experimental Example 3), by a ruler installed in a microscope, and the result is shown in FIG. 6.

[3] = tested on: back skins of hairless mice; test: Transepidermal water loss (TEWL) analysis; settings: 0.25% (w/v) topical, 12 weeks; UVB irradiation; Tewameter at 23° C., relative humidity 50%; p<0.01
Protocol: 7-week old male hairless mice (male HR-1, hairless mice, Japan SLC, Inc.), the experimental animals, were purchased from Central Lab. Animal Inc (Seoul, Korea). and used after an adaption period of a week. Only healthy animals were used in the experiments by observing general conditions during the adaption period. The breeding environment was maintained at 23±3° C. with 50±5% humidity with a light-dark cycle of 12 hours (7:00-19:00/lighting time). […]
as §2
To confirm the skin-moisturizing effect, the transepidermal water loss analysis was carried out with back skins of hairless mice in each experimental group. The transepidermal water loss level refers to the water quantity diffused from a skin, and if the level is high, it would mean that the skin moisturizing function is weakened, and that the function of innate skin barrier is damaged. […] The evaporated water quantity was then measured using Tewameter, and the skin moisturizing-ability was calculated.

[4] = compared to UV-treated group and excipient-treated group

## C[C@H]1CCC2(OC1)OC1CC3C4CC[C@@H]5CC(OC6OC(CO)C(O)C(O)C6OC6OC(CO)C(O)C(O)C6O)CC[C@]5(C)C4CC[C@]3(C)C1[C@@H]2C (some centres unmarked) [compound represented by Formula 1]
Skins of hairless mice; 0.25% (w/v) spread onto skin, 40 uL per 6 cm^2 once a day 5 days a week, UVB irradiation 8 weeks, compared to UV-treated group
  degree of skin-wrinkle formation (skin replica image, FIG. 1): thick wrinkles were alleviated
Skins of hairless mice; 0.25% (w/v) topical, UVB irradiation, compared to UV group and excipient-treated group (Vehicle), p<0.0001
  mean wrinkle length (FIG. 2): significantly reduced
Skins of hairless mice; 0.25% (w/v) topical, UVB irradiation, compared to UV-treated group, p<0.0001
  mean wrinkle depth (FIG. 3): significantly reduced
[1]; compared to UV-treated group
  collagen fibers (Masson's trichome staining, FIG. 5): collagen fibers were increased
[1]; [4]
  cornified layers (H&E staining, FIG. 4): cornified layers were alleviated
  epidermis (H&E staining, observed, FIG. 4): thinner epidermises were observed
[2]
  epidermis thickness (keratin layer to epidermal basement membrane, FIG. 6): significantly reduced
[3]
  skin water loss induced by UV rays (transepidermal water loss, FIG. 7): significantly prevented
